In data set [1] the target is T1, human TLR7 (Homo sapiens, UniProt Q9NYK1).
T1 sequence (Q9NYK1 27-1049): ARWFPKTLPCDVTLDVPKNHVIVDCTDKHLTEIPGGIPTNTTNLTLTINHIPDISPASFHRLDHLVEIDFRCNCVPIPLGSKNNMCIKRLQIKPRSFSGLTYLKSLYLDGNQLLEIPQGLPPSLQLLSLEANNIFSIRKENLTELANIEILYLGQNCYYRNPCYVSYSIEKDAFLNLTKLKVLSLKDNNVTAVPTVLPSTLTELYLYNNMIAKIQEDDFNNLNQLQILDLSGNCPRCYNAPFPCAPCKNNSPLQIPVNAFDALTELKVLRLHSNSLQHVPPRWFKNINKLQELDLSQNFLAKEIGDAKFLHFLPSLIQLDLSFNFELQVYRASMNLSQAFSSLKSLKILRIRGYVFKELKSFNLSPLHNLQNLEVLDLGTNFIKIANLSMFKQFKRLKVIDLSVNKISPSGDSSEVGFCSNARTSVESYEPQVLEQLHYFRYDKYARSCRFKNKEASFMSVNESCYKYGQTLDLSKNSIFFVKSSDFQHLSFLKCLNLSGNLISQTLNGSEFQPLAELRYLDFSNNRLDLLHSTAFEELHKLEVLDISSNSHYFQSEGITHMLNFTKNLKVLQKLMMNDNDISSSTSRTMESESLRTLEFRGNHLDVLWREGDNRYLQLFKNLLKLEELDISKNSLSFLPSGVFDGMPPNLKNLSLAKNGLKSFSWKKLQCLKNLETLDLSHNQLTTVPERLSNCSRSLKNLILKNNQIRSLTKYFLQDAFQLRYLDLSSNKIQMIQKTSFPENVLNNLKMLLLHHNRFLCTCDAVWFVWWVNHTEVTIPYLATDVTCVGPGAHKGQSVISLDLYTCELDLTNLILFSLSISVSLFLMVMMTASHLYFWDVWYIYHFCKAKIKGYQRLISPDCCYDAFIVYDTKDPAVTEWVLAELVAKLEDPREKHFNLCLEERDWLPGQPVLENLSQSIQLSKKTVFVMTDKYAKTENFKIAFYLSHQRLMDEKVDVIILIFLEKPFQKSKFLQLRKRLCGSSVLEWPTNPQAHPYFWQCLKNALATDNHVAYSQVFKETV
The data set can be described thus: HEK293-Blue-hTLR-7 cells assay (SEAP reporter). It is filed as cell-based. To be noted: for EC50: HEK293-Blue-hTLR-7 cells, SEAP reporter, 20 hrs. The method, boiled down:
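HEK293-Blue-hTLR7 cells with NF-κB/AP-1-driven SEAP reporter exposed to serially diluted compound (1% DMSO) for 20 hrs at 37° C. Supernatant SEAP measured with QUANTI-Blue after 2 hrs at 37° C, absorbance 620~655 nm; agonism expressed as EC50.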

The nature of data set [2]: LYSA solubility study. The format is physicochemical. The conditions noted are these: for solubility thermodynamic: phosphate buffer, pH 6.5, aqueous buffer, thermodynamic from solid, 0.05M phosphate buffer pH 6.5, read-out: LYSA of Active Forms. The essentials:
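Samples from 10 mM DMSO stock were dried, redissolved in 0.05M phosphate buffer pH 6.5, stirred 1 h, shaken 2 h, left overnight and filtered. Filtrate and 1/10 dilution quantified by HPLC-UV; solubility in μg/mL, reported as greater-than when >80% of the maximum sample amount was in solution.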

Data set [3] is described as follows: Portal vein study: oral PK in PVC/CAC dual cannulated rat. It is filed as in vivo. The conditions noted are these: prodrug 10 mg/kg oral, analyte prodrug. As for the experimental part: Surgery was performed under pentobarbital/isoflurane anesthesia. Briefly, after disinfecting the abdominal area with betadine and 70% isopropyl alcohol, a small abdominal mid-line incision was made. The cecum was pulled out and mesenteric vein was identified and isolated for about 5 mm vessel. A loose ligature was placed proximally and distal end of the vein was ligated. Make a small incision (just enough to allow the insertion of the catheter) on isolated vein and insert the PU catheter towards liver for appropriate length. The catheter was secured in place by tying the loose ligature around the cannulated vessel. The cecum was replaced into abdominal cavity. A hole was made in the right abdominal wall to make the end of catheter pass freely. The catheter was secured by suture on the abdominal wall. The abdominal muscle incision was closed with suture. A small incision was made in the scapular area to serve as the exit site of the catheter. The catheter was subcutaneously tunneled and exteriorized through the scapular incision. A fixed suture was placed in the scapular region. The patency of the catheter was checked and then exteriorized from the subcutaneous space to the dorsal neck region. After gently wiping the area, the abdominal cavity was sutured. The left carotid artery was then cannulated by inserting a PESO catheter. Both the exteriorized catheters were tied firmly on the dorsal neck region and fixed. The animals was then allowed to recover in its cage and used for study at least 3 days after surgery. All catheters were flushed once daily with heparinized saline to maintain patency. Animals were fasted overnight (n=3) and administered vial oral gavage (10 mg/kg, 10 mL/kg). Blood samples (60 μL) were collected simultaneously from the portal and carotid artery catheters at 0.083, 0.25, 0.5, 1, 2, 4, 7, 24 h. All blood samples will be transferred into microcentrifuge tubes containing 2 μL of K2EDTA (0.5M) as anti-coagulant and placed on wet ice. Then blood samples will be processed for plasma by centrifugation at approximately 4° C., 3000 g within half an hour of collection. Plasma samples will be stored in polypropylene tubes, quick frozen over dry ice and kept at −70±10° C. until LC/MS/MS analysis. Pharmacokinetic parameters (mean±SD, n=3) of prodrugs and active forms in portal and carotid samples following oral administration of prodrugs (10 mg/kg) in portal vein cannulated rat were detected and analyzed.

A short description of data set [4]: Single dose PK study in male Wister-Han rats. The format is in vivo. The conditions noted are these: male, Wister-Han, rat, plasma, po, 5 mg/kg, 5 mg/kg oral dosing of active form; for concentration at 7 h: 7 hrs (footnote), read-out: Mean plasma concentration (nM), 7 hrs (row 8*). As for the experimental part: The single dose PK in Male Wister-Han Rats was performed to assess pharmacokinetic properties of tested compounds. Two groups of animals were dosed via Gavage (POE) of the respective compound. […] Blood samples were placed into tubes containing EDTA-K2 anticoagulant and centrifuged at 5000 rpm for 6 min at 4° C. to separate plasma from the samples. After centrifugation, the resulting plasma was transferred to clean tubes for bioanalysis of both prodrug and active form on LC/MS/MS. In the groups that prodrug were dosed, the concentration of prodrugs in the plasma samples was under the detection limit. The “tested compound” in Table 8 was used as the internal standard for testing the metabolite (active form) of “dose compound” in vivo. The pharmacokinetic parameters were calculated using non-compartmental module of WinNonlin® Professional 6.2. The peak concentration (Cmax) was recorded directly from experimental observations. The area under the plasma concentration-time curve (AUC0-t) was calculated using the linear trapezoidal rule up to the last detectable concentration. Cmax and AUC0-last are two critical PK parameters related to the in vivo efficacy of the tested compound. Compounds with higher Cmax and AUC0-last will lead to the better in vivo efficacy.

The conditions of data set [5]: phase Ib, patients with chronic hepatitis B; cited from earlier work.
Setting [6] is: active form, read-out: HEK293-hTLR-7 EC50 (Active form).

≈ marks a conversion by molar mass, not a printed value. Where two headings read alike, the source gives them in different places.

On to `CCCN(C)C(=O)n1c(=O)n(Cc2ccccc2)c2nc(S(=N)(=O)CCC)nc(N)c21` (single isomer, unassigned) [Example 1-B], for which, in data set [1] (EC50 of prodrug over EC50 of corresponding active form), the “Ratio (EC50(prodrug)/EC50(active form))” value was determined as 314.0. Besides, the EC50 in data set [1] (prodrug, read-out: HEK293-hTLR-7 EC50 (Prodrug)) turned out to be 27000 nM. Besides, the “LYSA of Prodrugs” value in data set [2] (aqueous solubility, 0.05M phosphate buffer pH 6.5) came to 200 µg/mL. Besides, the AUC(0-t) was found to be 0.04 µM·h in data set [3] (carotid artery plasma, read-out: AUC0-2 (nM · h), prodrug, Carotid sampling) and 0.266 µM·h in data set [3] (portal vein plasma, read-out: AUC0-2 (nM · h), prodrug, Portal sampling). In addition, the Cmax in data set [3] (carotid artery plasma, read-out: Cmax (nM), prodrug, Carotid sampling) was 70 nM; in data set [3] (portal vein plasma, read-out: Cmax (nM), prodrug, Portal sampling), 670 nM. Further, the Tmax in data set [3] (carotid artery plasma, read-out: Tmax (h), prodrug, Carotid sampling) is 0.083 h; in data set [3] (portal vein plasma, read-out: Tmax (h), prodrug, Portal sampling) it was 0.083 h.

For `CCCCOc1nc(N)c2c(n1)N(Cc1cccc(CN3CCCC3)c1)CC(=O)N2` [GS9620, reference compound], in data set [4], the AUC(0-t) stood at 0.316 µM·h, the concentration peaked (Cmax) at 164 nM, the concentration at 0.25 h was 56.3 nM and the concentration at 0.5 h stood at 33.2 nM. In data set [4], this molecule displayed a concentration at 1 h of 83.4 nM, a concentration at 2 h of 136 nM and a concentration at 4 h of 16.7 nM. In addition, the concentration at 8 h in data set [4] (8 h) was found to be 9.49 nM. Also, in data set [5], the “ISG15 mRNA induction” value is “dose-dependent ISG15 mRNA induction”; the safety and tolerability result is “safe, well tolerated”.

As to `CC[S@](=N)(=O)c1nc(N)c2[nH]c(=O)n(Cc3ccc(Cl)cc3)c2n1` (single isomer, unassigned) [Compound 41c-A], the EC50 in data set [1] (setting [6]) stood at 71 nM. Also, in data set [4], the AUC(0-t) stood at 0.242 µM·h, the highest level (Cmax) was 32.3 nM, the concentration at 0.25 h turned out to be 16.8 nM and the concentration at 0.5 h came out at 27.5 nM. In data set [4], the concentration at 1 h came to 32.3 nM, the concentration at 2 h was 27.3 nM, the concentration at 4 h stood at 27.4 nM and the concentration at 7 h amounted to 18 nM. Also, in data set [4] (24 h), the concentration at 24 h came to 5.6 nM. In addition, the solubility thermodynamic in data set [2] came to 1 µg/mL (≈ 2.73 µM).

With `CC[S@@](=N)(=O)c1nc(N)c2[nH]c(=O)n(Cc3ccc(C)cc3)c2n1` (single isomer, unassigned) [Compound 43e-A], the EC50 in data set [1] (setting [6]) amounted to 110 nM. In data set [4], this molecule gave an AUC(0-t) of 0.077 µM·h, a Cmax of 15.2 nM, a concentration at 0.25 h of 12.6 nM and a concentration at 0.5 h of 15.2 nM. In data set [4], the concentration at 1 h was 13 nM, the concentration at 2 h worked out at 12 nM, the concentration at 4 h was determined as 8.2 nM and the concentration at 7 h is 6.31 nM. Also, the solubility thermodynamic in data set [2] turned out to be 13 µg/mL (≈ 37.5 µM).

Values taken from patent publication US10233184B2, “7-substituted sulfonimidoylpurinone compounds and derivatives for the treatment and prophylaxis of virus infection” (Hoffmann-La Roche Inc., priority 2016, dated 2019).
